In PubChem BioAssay (NCI) one finds TGI and GI50 data, which are given here for 15 compounds.

Some test systems named below: HL-60(TB) leukemia; OVCAR-5 ovarian; EKVX NSCLC; KM12 colon; HS 578T breast; SK-MEL-5 melanoma; OVCAR-3 ovarian; HOP-92 NSCLC.
Common to all, as to assay: NCI anticancer screen, dose series, 48 h

The structures appear in SMILES notation.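 Grown in 96-well plates, cells were treated for 48 hours with each compound at five concentrations. Insufficient inhibition: endpoint recorded as highest concentration tested. The concentration for 50% growth inhibition is given as GI50. Definition used: TGI = concentration required for complete inhibition of growth.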

In the case of `c1cc2c(cc1C1=NCCN1)c1cc(C3=NCCN3)ccc1n2CC1CCCCC1`, the TGI is 59.6 µM with HL-60(TB) leukemia; 95.6 µM in the experiment with OVCAR-5 ovarian; 69.2 µM in the experiment on EKVX NSCLC; over 100 µM in the experiment on KM12 colon; 32 µM with HS 578T breast; 36.2 µM in the experiment on SK-MEL-5 melanoma. The TGI in the experiment with OVCAR-3 ovarian is over 100 µM; in the experiment on HOP-92 NSCLC, 47.9 µM.

Regarding `CCOC(=O)CCC(NC(=O)c1ccc(Nc2nc3ccccc3nc2C(=O)OCC)cc1)C(=O)OCC` (stereo unspecified), the TGI is over 100 µM in the experiment on HL-60(TB) leukemia; over 56.4 µM with OVCAR-5 ovarian; 40.1 µM in the experiment on EKVX NSCLC; over 100 µM in the experiment on KM12 colon; 21.7 µM in the experiment with HS 578T breast; over 100 µM with SK-MEL-5 melanoma. In addition, the figures for the TGI in the experiment with OVCAR-3 ovarian and in the experiment with HOP-92 NSCLC were 4.73 µM and 13.9 µM, respectively.

As to `O=C1C=C(N2CCN(CCOCCO)CC2)C(=O)c2c(O)ccc(O)c21`, the TGI with HL-60(TB) leukemia was over 29.2 µM; with OVCAR-5 ovarian, 12.8 µM; in the experiment on EKVX NSCLC, 33.9 µM; with KM12 colon it was 26.5 µM; with HS 578T breast it was 45.3 µM; in the experiment on SK-MEL-5 melanoma, 3.12 µM. Moreover, the TGI with OVCAR-3 ovarian is 5.35 µM; in the experiment on HOP-92 NSCLC, 20.7 µM.

On to `O=C(NCCCCCN1CCC2(CCCCC2)CC1)C(C1CCCCC1)C1CCCCC1`, for which the TGI in the experiment on HL-60(TB) leukemia was found to be 3.62 µM; with OVCAR-5 ovarian, 17.7 µM; in the experiment with EKVX NSCLC, 9.66 µM; in the experiment with KM12 colon it was 13 µM; in the experiment on HS 578T breast, 9.59 µM; in the experiment on SK-MEL-5 melanoma, 2.96 µM. Besides, the values for the TGI in the experiment with OVCAR-3 ovarian and with HOP-92 NSCLC were 8.97 µM and 12.2 µM, respectively.

Regarding `C=C1CC2[C@H](C)C(=O)CCC2(C)C2=C1C1CCC(C(C)CCC(=C)C(C)C(=O)O)C1(C)CC2=O` (stereo partly specified), the TGI was 31.4 µM with HL-60(TB) leukemia; over 100 µM in the experiment with OVCAR-5 ovarian; over 100 µM in the experiment on EKVX NSCLC; over 100 µM in the experiment with KM12 colon; over 100 µM in the experiment on HS 578T breast; over 100 µM in the experiment on SK-MEL-5 melanoma. In addition, the TGI in the experiment with OVCAR-3 ovarian was over 100 µM; with HOP-92 NSCLC it was 85.2 µM.

With `O=C(Nc1ccc2ccccc2c1)c1cc2cc(CCl)ccc2oc1=O`, the TGI is over 100 µM in the experiment with HL-60(TB) leukemia; over 100 µM in the experiment with OVCAR-5 ovarian; over 100 µM with EKVX NSCLC; over 100 µM in the experiment with KM12 colon; 8.73 µM with HS 578T breast; over 100 µM in the experiment with SK-MEL-5 melanoma. Moreover, the TGI in the experiment on OVCAR-3 ovarian and in the experiment with HOP-92 NSCLC was over 100 µM in each case.

In the case of `CC(=O)c1sc2[n+](c1C)C(=O)/C(=C\c1ccccc1Cl)S2`, the TGI in the experiment on HL-60(TB) leukemia is 39 µM; in the experiment with OVCAR-5 ovarian, 50.1 µM; in the experiment with EKVX NSCLC it was 80.7 µM; in the experiment with KM12 colon, 35.2 µM; in the experiment on HS 578T breast it was over 100 µM; in the experiment on SK-MEL-5 melanoma, 23.4 µM. Moreover, the TGI is 35.8 µM in the experiment on OVCAR-3 ovarian and over 100 µM in the experiment with HOP-92 NSCLC.

Consider `CC(C)(C)[Si](C)(C)OC[C@H](/C=C\CCCC(=O)O)NC1(c2ccccc2)c2ccccc2-c2ccccc21`, for which the TGI in the experiment on HL-60(TB) leukemia was 37 µM; with OVCAR-5 ovarian it was 76.6 µM; in the experiment on EKVX NSCLC, 40.9 µM; in the experiment with KM12 colon, 48.8 µM; in the experiment with HS 578T breast it was 50.5 µM; in the experiment on SK-MEL-5 melanoma it was 23.3 µM. Besides, the results for the TGI with OVCAR-3 ovarian and with HOP-92 NSCLC were 36.1 µM and 25.5 µM, respectively.

Take `CN(C)CCCNC(=O)c1cn2c(ccc3sc4ccccc4c(=O)c32)n1`: the TGI with HL-60(TB) leukemia is 22.2 µM; with OVCAR-5 ovarian, 22.8 µM; in the experiment on EKVX NSCLC, 31.6 µM; in the experiment on KM12 colon, 37.6 µM; in the experiment on HS 578T breast it was 36.1 µM; in the experiment with SK-MEL-5 melanoma, 3.34 µM. For the same compound, the TGI in the experiment on OVCAR-3 ovarian is 24.1 µM; with HOP-92 NSCLC, 24.7 µM.

`CCOc1cc2c(cc1O)C(N)C[C@@H]1[C@@H]2CC[C@]2(C)[C@@H](O)CC[C@@H]12` (stereo partly specified): the TGI with HL-60(TB) leukemia was 46.5 µM; in the experiment on OVCAR-5 ovarian, over 100 µM; in the experiment with EKVX NSCLC, over 100 µM; with KM12 colon, over 100 µM; with HS 578T breast it was over 100 µM; in the experiment with SK-MEL-5 melanoma it was over 100 µM. For the same compound, the TGI in the experiment with OVCAR-3 ovarian and in the experiment with HOP-92 NSCLC was over 100 µM each time. In the experiment on OVCAR-3 ovarian, the GI50 was 44.9 µM.

Turning to `O=C(N/N=C\c1ccc([N+](=O)[O-])s1)c1ccncc1`, the TGI in the experiment with HL-60(TB) leukemia is over 22.7 µM; with OVCAR-5 ovarian it was over 66.9 µM; in the experiment on EKVX NSCLC it was 45.6 µM; in the experiment on KM12 colon, 26.8 µM; in the experiment on HS 578T breast, 50.4 µM; in the experiment on SK-MEL-5 melanoma it was 12.8 µM. The TGI turned out to be 8.06 µM in the experiment with OVCAR-3 ovarian and 32.8 µM in the experiment on HOP-92 NSCLC.

With `C=CC[C@H](N=C(SC)SC)C(=O)N1C(=O)N(C)[C@@H](C)[C@H]1c1ccccc1`, the TGI in the experiment with HL-60(TB) leukemia was over 100 µM; in the experiment on OVCAR-5 ovarian it was over 100 µM; in the experiment on EKVX NSCLC it was 78.4 µM; with KM12 colon, over 100 µM; with HS 578T breast, over 100 µM; with SK-MEL-5 melanoma, over 100 µM. Further, the TGI with OVCAR-3 ovarian was over 100 µM; in the experiment on HOP-92 NSCLC, 68.3 µM.

Turning to `CC/C(N)=N\NC(=O)OC(C)(C)C`, the TGI in the experiment on HL-60(TB) leukemia, in the experiment on OVCAR-5 ovarian, with EKVX NSCLC, with KM12 colon, in the experiment on HS 578T breast and with SK-MEL-5 melanoma was over 100 µM each time. Moreover, the TGI in the experiment on OVCAR-3 ovarian and in the experiment with HOP-92 NSCLC was over 100 µM each time.

With `CCCCCCCCCCCCOP(=O)(O)OP(=O)(O)OCC1OC(n2cc(C)c(=O)[nH]c2=O)CC1O` (stereo unspecified), the TGI in the experiment with HL-60(TB) leukemia, in the experiment on OVCAR-5 ovarian, in the experiment on EKVX NSCLC, in the experiment with KM12 colon, in the experiment with HS 578T breast and in the experiment with SK-MEL-5 melanoma was over 100 µM each time. The TGI in the experiment with OVCAR-3 ovarian and with HOP-92 NSCLC was over 100 µM each time.

With `O=C(Nc1ccc(Cl)cc1)c1cc(S(=O)(=O)Nc2n[nH]c(=O)n2-c2ccccc2)c(S)cc1Cl`, the TGI with HL-60(TB) leukemia, in the experiment with OVCAR-5 ovarian, in the experiment on EKVX NSCLC, in the experiment on KM12 colon, in the experiment with HS 578T breast and in the experiment on SK-MEL-5 melanoma was over 100 µM in each case. Besides, the TGI in the experiment on OVCAR-3 ovarian and with HOP-92 NSCLC was over 100 µM in each case.
